Test results reported in patent US20220257523A1, “COMPOSITE DRUG PARTICLES AND USES THEREOF” (The Regents of the University of Michigan, priority 2019, published 2022).

How the values were obtained:
[1] = system: primary subcutaneous human adipocytes; assay: Adipocyte lysis assay (MTS viability); assay type: cell-based
Description: The capability of the particle formulation to kill fat cells was tested by incubating them with primary subcutaneous human adipocytes. The primary subcutaneous human adipocytes cultured in 96-well plates were purchased from Zen-Bio (Research Triangle, NC). Upon arrival, 150 μl of the media was removed from each well, and the cells were incubated at 37° C. and 5% CO2. For the lysis assays, 150 μl of the salt solution or particle suspension of the known concentration in FBS free RPMI-medium were incubated for a known time-point. Afterward, the treatment solution was aspirated, the cells were washed with warm PBS, and 150 μl of a 1:25 dilution in 1×PBS of MTS assay cell titer (purchased from Promega Corporation, Madison, Wis.) was added to each well. Plates were incubated at 37° C. and 5% CO2 for 3 hr until the appearance of the orange color in the untreated control wells and the absorbance was measured at 490 nm. The cell viability was quantified via subtracting the background cell titer absorbance from the absorbance of the desired point and dividing it by the average signal of the untreated cells after subtracting the background.

[2] = system: inguinal fat pads of genetically obese mice; assay: In vivo lipolysis after subcutaneous injection into inguinal fat pad; parameters: species or system mice (B6.Cg-Lep^ob/J)
Description: Animal studies were conducted following the National Institute of Health guidelines for the care and use of laboratory animals and approved by the Institutional Animal Care and Use Committee (IACUC) of the University of Michigan. 8-10 week old female genetically obese (B6.Cg-Lep^ob/J) mice purchased from The Jackson Laboratory were used. The in vivo trials were replicated for 3 animals. All the animals had the same age and the average weight of the animals in each group were matched prior to the initiation of the study.
In vivo lipolysis assays were performed via subcutaneous injection of rhodamine-loaded deoxycholate microparticles into the inguinal fat pads of genetically obese mice alongside the salt solution and vehicle control. Genetically obese mice were anesthetized using isoflurane, shaved, and subcutaneously injected with 100 μL of the suspension of rhodamine-loaded deoxycholate particles or the solution of deoxycholate salt in saline (25 mg/mL) or vehicle control into their right inguinal fat pad. 100 μL of pure saline was injected into the left fat pad of the animals as the control. The weight and appearance of the animals was tracked over the course of two weeks. One group of the animals received a second dosage of particles on Day 7. After 14 days, the animals were euthanized, the right and left fat pad of the animals were removed, weighed, and fixed in 10% formalin solution overnight. Histology slides of the samples were prepared via paraffin embedding and standard hematoxylin and eosin staining. The histology slides were analyzed by blindfolded physicians and the digital scans were analyzed using QuPath software.

[3] = system: Human umbilical vein endothelial cells (HUVECs); assay: HUVEC cell lysis assay (MTS viability)
Description: After the desired time-point, the treatment solution/suspension was removed from the wells, the cells were washed with warm 1X phosphate buffered saline (PBS) and incubated with 1 ml of the 1:25 dilution of MTS assay cell titer (Promega, WI) in 1×PBS at 37° C. and 5% CO2 for 2 hr until the appearance of the orange color in the untreated control wells. The absorbance was then measured at 490 nm, and each condition was repeated in triplicate. The percentage of the cell viability was quantified via subtracting the background cell titer absorbance from the absorbance of the desired point and dividing it by the average signal of the untreated cells after subtracting the background.

| Compound | cells killed ([1]; 1% solution in RPMI media) | concentration enough to kill the fat cells ([1]; RPMI media, within 1 hr) | time at which an ulcer developed in all of the animals ([2]; 100 μL of 25 mg/mL in saline s.c. into right inguinal fat pad) | skin bruising and inflammation at the injection site ([2]; 100 μL of 25 mg/mL in saline s.c. into right inguinal fat pad, particles rhodamine-loaded, one or two dosages) | local fat loss in the injected fat pad ([2]; at euthanasia 14 days post-injection, right versus left fat pad) | weight of the animals during the lipolytic treatment ([2]; over two weeks) | histology (H&E) of the right fat pad, evidence of fat lysis ([2]; s.c. injection into right inguinal fat pad) | cells killed ([3]; 0.01% solution in media, 1 hr) [%] | cells still alive ([3]; 0.1% salt in 5% BSA, 3 hr) | cell death ([3]; 0.1% salt in media, 3 hr) | cells killed ([3]; 0.2% salt solution in media, 1 hr) | cells lysed ([3]; concentrations higher than 0.2%, 1 hr) |
| --- | --- | --- | --- | --- | --- | --- | --- | --- | --- | --- | --- | --- |
| C[C@H](CCC(=O)[O-])[C@H]1CC[C@H]2[C@@H]3[C@H](O)C[C@@H]4C[C@H](O)CC[C@]4(C)[C@H]3C[C@H](O)[C@]12C.[Na+] [sodium cholate] | all the cells | – | – | – | – | – | – | – | – | – | – | – |
| C[C@H](CCC(=O)[O-])[C@H]1CC[C@H]2[C@@H]3CC[C@@H]4C[C@H](O)CC[C@]4(C)[C@H]3C[C@H](O)[C@]12C.[Na+] [sodium deoxycholate] | – | higher than 0.05% | 7-9 days post-injection | severe bruising and inflammation | visual evidence of local fat loss | No significant change | Crown-like structures and significant leukocyte infiltration | ~40 | around 25% | nearly all the cells | approximately 95% | all the cells |
